Test results from publication PMC4595804, “A strategy to discover decoy chemokine ligands with an anti-inflammatory activity” (Scientific Reports, 2015).
Read-outs that look alike come from different tables or passages of the source.

Assays:
[1] = biological target: T1, CCL22 (Homo sapiens, UniProt O00626); assay: Tryptophan fluorescence assay on CCL22; assay type: binding
T1 construct: codes for the mature CCL17 or CCL22 with an N-terminal thioredoxin-hexahistidin (TRX- (His)6) tag; thioredoxin (TRX) (N, cleaved yes); (His)6 (N, cleaved yes); made in house; host or cells: E. coli BL21 (DE3)
T1 sequence (O00626 25-93): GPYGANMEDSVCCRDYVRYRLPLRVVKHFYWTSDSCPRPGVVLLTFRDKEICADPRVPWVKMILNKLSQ
Procedure: Fluorescence measurements were performed on a spectrofluorometer (JobinYvon/Spex) in a quartz microcuvette at 20 °C. […] The fluorescence emission spectra were corrected by subtracting the emission scan of the compounds alone and data analysis was carried out with fluorescence intensities detected at 340 nm.

[2] = Solubility measurements (RP-HPLC); assay type: physicochemical; conditions: kinetic from dmso stock, dissolved at 10 µM, room temperature
Procedure: Standard stock solutions of compounds (10mM) were prepared in DMSO, and the molecules were dissolved at a concentration of 10µM in each of the three buffers. The samples were shaken for 1h at room temperature, and centrifuged at 15,000×g . The compounds concentration in the supernatant solutions was determined using RP-HPLC (Gilson) technique. The measurements were done with a UV detector set at 230nm. The measurements were carried out at room temperature using a C18 column ([…], 50×4.6mm, Phenomenex). The aqueous mobile phase contained 0.05% trifluoroacetic acid (solvent A, Sigma-Aldrich). The organic phase was HPLC grade acetonitrile (Sigma-Aldrich CHROMASOLV) (solvent B). The mobile phase flow rate was 2ml/min, and the following program was applied for the elution: 0–0.1min, 5% B; 0.1–2.6min, 5–95% B; 2.6–3.1min, 95% B; 3.1–3.3min, 95–5% B; and 3.3–6min, 5% B. To establish external calibration curves, increasing concentrations of each compound were prepared from standard stock solutions.
The chromatograms were recorded by injecting 20µl of each standard solution, and the calibration curves were plotted using peak areas. […]

[3] = biological target: CXCL8 (Homo sapiens, UniProt P10145); assay: Selectivity, neutraligand protocol, EGFP-CXCR2+ HEK cells; assay type: cell-based; conditions: 10 μM compound, 5 nM CXCL8, EGFP-CXCR2+ HEK cells
Sequence of CXCL8 (P10145 28-99 limits assumed): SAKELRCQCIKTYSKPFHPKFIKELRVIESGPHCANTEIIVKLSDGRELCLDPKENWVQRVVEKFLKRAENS
Procedure: Figure 6 (a) Selectivity of CCL17 and CCL22 neutraligands towards 10 chemokines according to the “neutraligand protocol”. […] Each column represents the mean (block) ± SD (bars) of n = 3 experiments performed in triplicate. *p < 0.05; **p < 0.01; ***p < 0.005 as compared to chemokine + DMSO. (b) Chemokine neutraligands inhibited CCR4 endocytosis induced by CCL22 or CCL17. EGFP-CCR4^+ HEK cells were incubated for 30 min with DMSO or chemokine (100 nM CCL22 or CCL17) in the presence or absence of test compounds. […] Cell surface EGFP-tagged CCR4 receptors were measured by EGFP antibody labeling and flow cytometry analysis. CCR4 internalization was expressed as a percentage of total receptor surface expression calculated using control cells incubated with DMSO (100%). […] The number of migrating cells in the presence of chemokine and compounds were expressed as the corresponding percentages. Results were analyzed by fitting the experimental curves (% of migrating cells vs log compound concentration) using the Kaleidagraph software program, and the corresponding IC50 values were calculated. […]
Dye loaded cells were placed in the FlexStation 3 (Molecular Devices). Calcium mobilization was measured at 401 and 475 nm emission fluorescence after excitation at 355 nm. […] Raw fluorescence data (at 401 and 475 nm) were exported and the ratio 401/475 was calculated. […]

[4] = biological target: T2, CCL22 R80N (Homo sapiens, UniProt O00626, R80N); assay: Calcium responses induced by chemokine mutant, neutraligand protocol; assay type: cell-based; conditions: 10 μM compound, 5 nM chemokine; remaining response
T2 construct: codes for the mature CCL17 or CCL22 with an N-terminal thioredoxin-hexahistidin (TRX- (His)6) tag; TRX-(His)6 (N, cleaved yes); made in house; host or cells: E. coli BL21 (DE3)
T2 sequence (O00626 25-93 R80N): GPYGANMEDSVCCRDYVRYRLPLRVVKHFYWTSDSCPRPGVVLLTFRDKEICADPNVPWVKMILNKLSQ
Procedure: (§1) Dye loaded cells were placed in the FlexStation 3 (Molecular Devices). Calcium mobilization was measured at 401 and 475 nm emission fluorescence after excitation at 355 nm. For the primary screening, the ligands (50μl of chemokine mixed with DMSO or test compounds) were added to the cells at 40 s, followed by digitonin addition (50μl) at 100 s to the cells. Molecules were screened at a final concentration of 2μg/ml with 5 nM CCL17 or CCL22. […] Raw fluorescence data (at 401 and 475 nm) were exported and the ratio 401/475 was calculated. The calcium response values (height of peak response over baseline) were determined. Hits were selected by comparing the response amplitude at the time of the chemokine addition ± test compound. The Z’ factor[29] was calculated according to the following equation: Z’ = 1-(3SD+ + 3SD−)/|Ave+ − Ave−|, where SD+ and Ave+ are respectively the standard deviation and the mean value of the positive controls (chemokine + DMSO), while SD− and Ave− are respectively the standard deviation and the mean value of the negative controls (HEPES-BSA (0.1%) mixed with DMSO, or cells mixed with C-021). Hit molecules were confirmed by performing concentration-response curves and their half maximal inhibitory concentration (IC50) values were calculated using the Kaleidagraph software.
(§2) and the denaturated chemokines (disulfite bonds reduced by β-mercaptoethanol). The
(§3) chemokine activity was then, tested in the in vitro assays. […]

[5] = biological target: T3, CCL22 W55A (Homo sapiens, UniProt O00626, W55A); assay: as above; assay type: cell-based; conditions: 10 μM compound, 5 nM chemokine; remaining response
T3 construct: codes for the mature CCL17 or CCL22 with an N-terminal thioredoxin-hexahistidin (TRX- (His)6) tag; TRX-(His)6 (N, cleaved yes); made in house; host or cells: E. coli BL21 (DE3)
T3 sequence (O00626 25-93 W55A): as the sequence (O00626 25-93 R80N) above, with W31A, N56R counted along it
Procedure: as §1, §2, §3

[6] = biological target: T4, CCL22 D58A (Homo sapiens, UniProt O00626, D58A); assay: as above; assay type: cell-based; conditions: 10 μM compound, 5 nM chemokine; remaining response
T4 construct: codes for the mature CCL17 or CCL22 with an N-terminal thioredoxin-hexahistidin (TRX- (His)6) tag; TRX-(His)6 (N, cleaved yes); made in house; host or cells: E. coli BL21 (DE3)
T4 sequence (O00626 25-93 D58A): as the sequence (O00626 25-93 R80N) above, with D34A, N56R counted along it
Procedure: as §1, §2, §3

[7] = HEPES buffer, aqueous buffer, read-out: solubility in HEPES buffer
[8] = complete cell culture medium, plasma or biological fluid, read-out: solubility in the cell culture medium

Row | Kd ([1]; 1.5 μM CCL22, tryptophan fluorescence at 340 nm, estimated, read-out: KD, high-affinity binding site class, on CCL22) [µM] | Kd ([1]; […] CCL22, tryptophan fluorescence at 340 nm, read-out: KD, low-affinity binding site class, on CCL22) [µM] | SMILES | solubility at 1 h [2, 7] [µM] | solubility at 1 h [2, 8] [µM] | effect on calcium responses induced by CXCL8 [3] | calcium response induced by CCL22 R80N preincubated with compound [4] | calcium response induced by CCL22 W55A preincubated with compound [5] | calcium response induced by CCL22 D58A preincubated with compound [6]
1 | < 0.05 | 53 | O=C(OCC(O)CO)c1ccccc1O (centres unmarked) [GPN136, 2,3-dihydroxypropyl 2-hydroxybenzoate] | > 10 | > 10 | no effect | 100.0 ± 3.0% | 46.0 ± 3.0% | 76.0 ± 3.0%
2 | – | – | CC(C)=CCn1cnc2c1c(=O)n(C)c(=O)n2C [GPN279, 1,3-dimethyl-7-(3-methylbut-2-enyl)-1H-purine-2,6(3H, 7H)-dione] | > 10 | > 10 | no effect | neither inhibited WT nor CCL22 mutants | neither inhibited WT nor CCL22 mutants | neither inhibited WT nor CCL22 mutants
